Consider five compounds from PubChem BioAssay AID2060906 (Molecular Pharmacology Branch, DTP, NCI, 2025).

This experiment deals with 485176-168-R4-J1-PDC complex spheroid growth. Description: Anticancer human tumor 485176-168-R4-J1-PDC patient-derived pancreatic adenocarcinoma cell line growth inhibition [RAS]. The following applies: for viability, T/C: stronger effect = lower value. In outline: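 Multi-cell-type spheroids: tumor cells plus HUVEC endothelial cells and mesenchymal stem cells. RAS-pathway inhibitors were combined with targeted agents, each dosed in half-log steps down from clinical Cmax, or from 10 microM when Cmax was unknown.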

Where [1] appears, read: curve of first compound, second compound 0.00316 µM.
[2] abbreviates: curve of first compound, second compound 0.01 µM.
The mark [3] stands for this setting: curve of first compound, second compound 0.0316 µM.
Setting [4] is: curve of first compound, second compound 0.1 µM.
Setting [5] is: curve of first compound, second compound 0.316 µM.
Where [6] appears, read: curve of first compound, second compound 1 µM.
Setting [7] is: second compound 0.00316 µM, first compound 0.0316 µM.
[8] abbreviates: second compound 0.00316 µM, first compound 0.1 µM.
[9] abbreviates: second compound 0.00316 µM, first compound 0.316 µM.
Setting [10] is: second compound 0.00316 µM, first compound 1 µM.
Setting [11] is: second compound 0.00316 µM, first compound 3.16 µM.
The mark [12] stands for this setting: second compound 0.00316 µM, first compound 10 µM.
The mark [13] stands for this setting: second compound 0.01 µM, first compound 0.0316 µM.
The mark [14] stands for this setting: second compound 0.01 µM, first compound 0.1 µM.
[15] abbreviates: second compound 0.01 µM, first compound 0.316 µM.
Setting [16] is: second compound 0.01 µM, first compound 1 µM.
The mark [17] stands for this setting: second compound 0.01 µM, first compound 3.16 µM.
[18] abbreviates: second compound 0.01 µM, first compound 10 µM.
The mark [19] stands for this setting: second compound 0.0316 µM, first compound 0.0316 µM.
Setting [20] is: second compound 0.0316 µM, first compound 0.1 µM.
The mark [21] stands for this setting: second compound 0.0316 µM, first compound 0.316 µM.
The mark [22] stands for this setting: second compound 0.0316 µM, first compound 1 µM.
The mark [23] stands for this setting: second compound 0.0316 µM, first compound 3.16 µM.
Setting [24] is: second compound 0.0316 µM, first compound 10 µM.
Where [25] appears, read: second compound 0.1 µM, first compound 0.0316 µM.
Setting [26] is: second compound 0.1 µM, first compound 0.1 µM.
Where [27] appears, read: second compound 0.1 µM, first compound 0.316 µM.
[28] abbreviates: second compound 0.1 µM, first compound 1 µM.
Setting [29] is: second compound 0.1 µM, first compound 3.16 µM.
The mark [30] stands for this setting: second compound 0.1 µM, first compound 10 µM.
Where [31] appears, read: second compound 0.316 µM, first compound 0.0316 µM.
Setting [32] is: second compound 0.316 µM, first compound 0.1 µM.
The mark [33] stands for this setting: second compound 0.316 µM, first compound 0.316 µM.
Where [34] appears, read: second compound 0.316 µM, first compound 1 µM.
[35] abbreviates: second compound 0.316 µM, first compound 3.16 µM.
Setting [36] is: second compound 0.316 µM, first compound 10 µM.
Where [37] appears, read: second compound 1 µM, first compound 0.0316 µM.
The mark [38] stands for this setting: second compound 1 µM, first compound 0.1 µM.
The mark [39] stands for this setting: second compound 1 µM, first compound 0.316 µM.
Where [40] appears, read: second compound 1 µM, first compound 1 µM.
[41] abbreviates: second compound 1 µM, first compound 3.16 µM.
Setting [42] is: second compound 1 µM, first compound 10 µM.

Bounds are passed on as bounds.

Usually IC50 stands for the concentration needed to halve the response being measured. Usually viability, T/C stands for the ratio of treated to control.
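Also: spheroids exposed to compounds for seven days before readout.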
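For viability, T/C in this document: luminescence viability expressed relative to DMSO vehicle wells set as 100%.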

For `C[C@@H](NC(=O)c1ncnc(N)c1Cl)c1ncc(C(=O)Nc2cc(C(F)(F)F)c(Cl)cn2)s1` + C=CC(=O)N1CCN(c2nc(OCC3CCCN3C)nc3c(F)c(-c4nc(N)cc(C)c4C(F)(F)F)c(Cl)cc23)C(C)C1, the IC50 is, setting by setting: under setting [1], greater than 10 µM; under setting [2], greater than 10 µM; under setting [3], greater than 10 µM; under setting [4], greater than 10 µM; under setting [5], greater than 10 µM; under setting [6], greater than 10 µM. In addition, the viability, T/C runs as follows: under setting [7], 106%; under setting [8], 104%; under setting [9], 101%; under setting [10], 86.2%; under setting [11], 84.7%; under setting [12], 56.9%. Besides, the viability, T/C reads like this: under setting [13], 96.1%; under setting [14], 94%; under setting [15], 96.5%; under setting [16], 75.8%; under setting [17], 81.3%; under setting [18], 60.3%. In addition, the viability, T/C reads like this: under setting [19], 111%; under setting [20], 98.4%; under setting [21], 100%; under setting [22], 81.1%; under setting [23], 75.6%; under setting [24], 59.3%. The viability, T/C by setting is: under setting [25], 89.5%; under setting [26], 92.3%; under setting [27], 101%; under setting [28], 92%; under setting [29], 78.5%; under setting [30], 63.4%. Also, the viability, T/C is, setting by setting: under setting [31], 108%; under setting [32], 102%; under setting [33], 101%; under setting [34], 79.3%; under setting [35], 83.2%; under setting [36], 53%. Further, the viability, T/C under setting [37] was 100%; the viability, T/C under setting [38] was 95.7%; the viability, T/C under setting [39] was 77.3%; the viability, T/C under setting [40] was 88.5%; the viability, T/C under setting [41] was 63.7%; the viability, T/C under setting [42] was 52.1%.

For `CC1(O)CCCC1n1c(=O)c(C(F)F)cc2cnc(NC3CCN(S(C)(=O)=O)CC3)nc21` (centres undefined), the viability, T/C runs as follows: (compound 0.0316 µM) 102% [middle of 4 runs]; (compound 0.1 µM) 77.6% [middle of 4 runs]; (compound 0.316 µM) 70.4% [middle of 4 runs]; (compound 1 µM) 72.5% [middle of 4 runs]; (compound 3.16 µM) 57.5% [middle of 4 runs]; (compound 10 µM) 2.58% [middle of 4 runs]. The IC50 (curve of compound) was 2.72 µM [middle of 4 runs].

In the case of `CCN1CCN(Cc2ccc(Nc3ncc(F)c(-c4cc(F)c5nc(C)n(C(C)C)c5c4)n3)nc2)CC1`, the viability, T/C was 92.9% [middle of 4 runs] (compound 0.00316 µM); 88.4% [middle of 4 runs] (compound 0.01 µM); 100% [middle of 4 runs] (compound 0.0316 µM); 75.5% [middle of 4 runs] (compound 0.316 µM); 67.7% [middle of 4 runs] (compound 1 µM). The IC50 (curve of compound) was greater than 1 µM.

Take `CC(Nc1ccc2c(c1)OCCn1cc(N3C(=O)OCC3C(F)F)nc1-2)C(N)=O` (centres undefined) + C=CC(=O)N1CCN(c2nc(OCC3CCCN3C)nc3c(F)c(-c4nc(N)cc(C)c4C(F)(F)F)c(Cl)cc23)C(C)C1: the IC50 under setting [1] is greater than 10 µM; the IC50 under setting [2] is greater than 10 µM; the IC50 under setting [3] is greater than 10 µM; the IC50 under setting [4] was greater than 10 µM; the IC50 under setting [5] was greater than 10 µM; the IC50 under setting [6] was 8.19 µM. The viability, T/C under setting [7] was 91.2%; the viability, T/C under setting [8] is 83.3%; the viability, T/C under setting [9] was 64.8%; the viability, T/C under setting [10] is 69.9%; the viability, T/C under setting [11] was 58.1%; the viability, T/C under setting [12] was 52.1%. Besides, the viability, T/C reads like this: under setting [13], 90.3%; under setting [14], 98.4%; under setting [15], 88.9%; under setting [16], 73.6%; under setting [17], 77.9%; under setting [18], 59.1%. Also, the viability, T/C under setting [19] was 102%; the viability, T/C under setting [20] is 78.5%; the viability, T/C under setting [21] was 79%; the viability, T/C under setting [22] was 81.8%; the viability, T/C under setting [23] is 63.6%; the viability, T/C under setting [24] is 62.8%. The viability, T/C is, setting by setting: under setting [25], 82.9%; under setting [26], 99%; under setting [27], 63%; under setting [28], 60.2%; under setting [29], 61.8%; under setting [30], 43.6%. Besides, the viability, T/C under setting [31] was 108%; the viability, T/C under setting [32] is 83%; the viability, T/C under setting [33] was 81.5%; the viability, T/C under setting [34] is 69.8%; the viability, T/C under setting [35] is 75.6%; the viability, T/C under setting [36] was 57.3%. In addition, the viability, T/C runs as follows: under setting [37], 85.9%; under setting [38], 85.7%; under setting [39], 69.5%; under setting [40], 76.3%; under setting [41], 55.7%; under setting [42], 48.8%.

For the compound `CCC(CC)c1cc(NC2CCC(N)C2)n2nccc2n1` (centres undefined), the viability, T/C is, setting by setting: (compound 0.0316 µM) 105% [middle of 4 runs]; (compound 0.1 µM) 93.7% [middle of 4 runs]; (compound 0.316 µM) 98.9% [middle of 4 runs]; (compound 1 µM) 80.6% [middle of 4 runs]; (compound 3.16 µM) 3.56% [middle of 4 runs]; (compound 10 µM) 0.72% [middle of 4 runs]. Besides, under “curve of compound”, the IC50 was 1.58 µM [middle of 4 runs].
